Assay results as given in patent publication US5606037A, “Processes antineoplastic heteronaphthoquinones” (BioChem Pharma Inc., priority 1995, dated 1997).
Counter-ions that a name gives are not always drawn.

Tests used:
Assay type in all cases: cell-based, Human
VLB/OV3 = experiment: Resistance ratio of SKVLB over SKOV3 cytotoxicity (VLB/OV3); conditions: ratio SKVLB to SKOV3; Table 1; 2880 min
Description: The microculture tetrazolium assay was used to test in vitro cytotoxicity. This assay is described in Plumb, J. A. et al., 1989 Cancer Research 49, 4435-4440, which is herein incorporated by reference. The cytotoxicity of compounds towards tumor cells is measured in vitro using the assay. This assay method is based upon the ability of live, but not dead cells to reduce the yellow water soluble dye 3-(4,5-dimethylthiazol-2-yl)-2,5-diphenyltetrazolium bromide (MTT) to its water insoluble purple formazan product.
SKOV3 (Ovarian adenocarcinoma)--provided by Dr. V. Ling, Ontario Cancer Institute.
SKVLB (Ovarian; multidrug resistant)--Dr. V. Ling, Ontario Cancer Institute.
For each assay, doxorubicin is included as an inter-assay standard. This allows us to monitor the behaviour of the assay in general, and in particular, to check that the SKVLB line has maintained its resistant phenotype.
Cells are plated out in 100 μl of culture medium in the microtiter plates at a density of around 1,500-4,000 cells per well. The plates are incubated overnight to allow the cells to become adherent after which the test compound is added (100 μl of appropriate dilution per well). The cells are incubated with test compound at 37° C. for 48 h after which the compound is replaced with fresh medium. After a further 48 h incubation at 37° C., 50 μl of MTT solution (2 mg/ml) is added to each well. The plates are incubated in the dark for 4 h at 37° C. after which the medium is removed. The MTT formazan product is extracted from the cells by the addition of 200 μl DMSO followed by 50 μl of Sorensen's buffer. The plates are shaken briefly and the absorbance at 570 nm is read using a Molecular Devices UV max plate reader. Curves are fit to the MTT assay data using a four parameter logistic equation, and the data are normalized to fit a 0% to 100% survival scale.

[1] = tested on: T47D (Ductal carcinoma of breast); experiment: In vitro cytotoxicity, microculture tetrazolium (MTT) assay, T47D; conditions: 48 h with compound, further 48 h, Table 1
How it was run: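 Adherent cells (1,500-4,000/well) were exposed to compound in 1:3 dilutions from 100 μM to 1.7 nM, in quadruplicate, for 48 h at 37° C, followed by 48 h in fresh medium. MTT formazan was read at 570 nm, and data were fitted by four-parameter logistic on a 0-100% survival scale.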

Lox (Melanoma) = experiment: In vitro cytotoxicity, microculture tetrazolium (MTT) assay, LOX; conditions: 48 h with compound, further 48 h, Table 1
How it was run: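 LOX melanoma cells, 1,500–4,000 per well, exposed to compound (1:3 dilutions, 100 μM to 1.7 nM) for 48 h at 37° C., then 48 h in fresh medium. MTT reduction read at 570 nm; four-parameter logistic fit normalized to 0–100% survival.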

[2] = tested on: SKVLB (Ovarian; multidrug resistant); experiment: In vitro cytotoxicity, microculture tetrazolium (MTT) assay, SKVLB; conditions: for IC50: SKVLB multidrug resistant ovarian, 48 h with compound, further 48 h, MTT, Table 1
How it was run: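 Multidrug-resistant SKVLB ovarian cells, 1,500–4,000 per well, exposed to compound (1:3 dilutions, 100 μM to 1.7 nM, quadruplicate) for 48 h at 37 °C, then 48 h in fresh medium. Viability by MTT reduction, formazan read at 570 nm; four-parameter logistic fit on a 0–100% survival scale.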

[3] = tested on: HT 29 (Colon adenocarcinoma); experiment: In vitro cytotoxicity, microculture tetrazolium (MTT) assay, HT29; conditions: further 48 h, Table 1
How it was run: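 HT29 cells exposed to compound (1:3 series, 100 μM to 1.7 nM, quadruplicate) for 48 h at 37 °C, then 48 h in fresh medium. Viability by MTT reduction, formazan absorbance at 570 nm; four-parameter logistic fit on 0-100% survival scale.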

[4] = tested on: SKOV3 (Ovarian adenocarcinoma); experiment: In vitro cytotoxicity, microculture tetrazolium (MTT) assay, SKOV3; conditions: for IC50: SKOV3 ovarian adenocarcinoma, 48 h with compound, further 48 h, MTT, Table 1
How it was run: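 Cells plated overnight, then exposed to compound (1:3 dilutions, 100 μM to 1.7 nM, quadruplicate) 48 h at 37 °C, followed by 48 h in fresh medium. MTT 4 h, formazan extracted in DMSO/Sorensen's buffer pH 10.5, A570; four-parameter logistic fit on 0–100% survival scale.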

[5] = Homo sapiens, HT-29, 48 h with compound

`COP(=O)(CC(=O)[C@H]1CC2=C(C(=O)c3ccccc3C2=O)[C@H](O[C@H]2C[C@H](NC(=O)C(F)(F)F)[C@H](O)[C@H](C)O2)O1)OC` [BCH1690, (1'S,1S,3R)-1-(2',3',6'-trideoxy-3'-trifluoroacetamido-L-lyxohexopyranose)-3-dimethylphosphonoacetyl-5,10-dioxo-3,4,5-10-tetrahydro-1H-naphtho-[2,3-c]-pyran] gave a VLB/OV3 (VLB/OV3) of 7.70.

Work on `CC(=O)C1CC2=C(C(=O)c3ccccc3C2=O)C(OC2CC(NC(=O)C(F)(F)F)C(O)C(C)O2)O1` [BCH2144, (1R, 3S)-1-(2',3',6'-trideoxy-3'-trifluoroacetamido-4'-hydroxy-1,5-dihydro-L-lyxohexopyranose-2-yl)-5,10-dioxo-3,4,5,10-tetrahydro-1H-naphtho-[2,3-c] pyran] yielded a VLB/OV3 (VLB/OV3) of 0.75.

In the case of `CC(C)[C@H]1CC2=C(C(=O)c3ccccc3C2=O)[C@H](O[C@H]2C[C@H](NC(=O)C(F)(F)F)[C@H](O)[C@H](C)O2)O1` [BCH2052, (1'S, 1S, 3R)-5,10-dioxo-3-isopropyl-1-(2',3',6'-trideoxy-3'-trifluoroacetamido-L-lyxohexopyranose)-3,4,5,10-tetrahydro-1H-naphtho-[2,3-c]-pyran], the VLB/OV3 (VLB/OV3) is reported as 3.78-4.02, the IC50 ([1]; Homo sapiens) is reported as 9540 to 23300 nM and the IC50 (Lox (Melanoma); Homo sapiens) is reported as 3040 to 3220 nM. The IC50 ([2]; Homo sapiens) was 20500 to 28200 nM, the IC50 [3, 5] was 10600 to 15400 nM and the IC50 ([4]; Homo sapiens, SK-OV-3) was 5400 to 7010 nM.

`CC(=NO)[C@@H]1CC2=C(C(=O)c3ccccc3C2=O)[C@@H](O[C@H]2C[C@H](NC(=O)C(F)(F)F)[C@H](O)[C@H](C)O2)O1` [BCH2115, (1'S, 1R, 3S)-3 (oximoethyl)-5,10-dioxo-1 (2,3,6-trideoxy-3-trifluoroacetamido-L-lyxohexopyranose)-3,4,5,10-tetrahydro-1H-naphtho-(2,3-c)-pyran] gave a VLB/OV3 (VLB/OV3) of over 50, an IC50 [1] of 5300 nM and an IC50 (Lox (Melanoma)) of 4000 nM. The IC50 ([3]; 48 h with compound) was 5600 nM and the IC50 [4] was 2300 nM.

With `COC1OC(C(=O)NCCCN(C)C)=CC2=C1C(=O)c1ccccc1C2=O` (stereo not drawn) [BCH2051, 1-Methoxy-5,10-dioxo-5,10-dihydro-1H-naphtho[2,3-c]pyran-3-[N-(3-dimethylamino-propyl)carboxamide] hydrochloride monohydrate] the VLB/OV3 (VLB/OV3) was 9.3-14.14, the IC50 ([1]; Homo sapiens) was 41.9 to 68.5 nM and the IC50 (Lox (Melanoma); Homo sapiens) was 16.7 to 30 nM. The IC50 ([2]; Homo sapiens) was 67.5 to 403 nM, the “multidrug resistance / effect in multidrug resistant cell line SKVLB” value ([2]; SKVLB cell line) was “significantly avoiding multidrug resistance” and the IC50 [3, 5] was 91 to 134 nM. The IC50 ([4]; Homo sapiens, SK-OV-3) was 7.3 to 29 nM and the “in vitro antitumor potency” value ([4]; in vitro, Tables 1 and 2) was “intense in vitro antitumor potency”.

In the case of `CC(=O)OC1C(C)OC(OC2OC(C(C)=O)CC3=C2C(=O)c2ccccc2C3=O)C(I)C1OC(C)=O` (mixture of isomers) [BCH2065, (1'S,1R,1S) and (1'S,1S,3R)-methyl-(1-[2',6'-dideoxy-3',4'-diacetoxy-2'-iodo-L-arabino-hexopyranose]-5,10-dioxo-3,4,5,10-tetrahydronaphtho-[2,3-c]-pyran-3-yl) ketone], the VLB/OV3 (VLB/OV3) is reported as 4.

With `C=CC[C@@H]1CC2=C(C(=O)c3ccccc3C2=O)[C@@H](O[C@H]2C[C@H](NC(=O)C(F)(F)F)[C@H](O)[C@H](C)O2)O1` (mixture of isomers) [BCH2031, (1'S,1S,3S) and (1'S,1-R,3-R)-3-([2',3',6'-trideoxy-3'-trifluoroacetamido-4'-hydroxy-L-lyhohexopyranose]-5,10-dioxo-3,4,5,10-tetrahydronaphtho-[2,3-c]-pyran-3-yl)-propene] the VLB/OV3 (VLB/OV3) was 3, the IC50 [1] was 16000 nM and the IC50 (Lox (Melanoma)) was 2800 nM. The IC50 ([3]; 48 h with compound) was 8500 nM and the IC50 [4] was 6000 nM.

“(1S, 2'S, 3R) and (1R, 2'S, 3S)-methyl-(1-[O-prolinol]-3,4,5,12-tetrahydronaphtho-[2,3-C]pyran-3-yl) ketone hydrochloride salt [BCH1658]” gave a VLB/OV3 (VLB/OV3) of 6.31, an IC50 [1] of 494 nM and an IC50 (Lox (Melanoma)) of 316 nM. For the same compound, the IC50 [2] was 1470 nM, the IC50 ([3]; 48 h with compound) was 661 nM and the IC50 [4] was 233 nM.

For `CC(=O)C1CC2=C(C(=O)c3ccccc3C2=O)C(OCC2CCN(C(=O)OC(C)(C)C)CC2)O1.Cl` (racemic) [BCH2068, Methyl-(1-O-[N-BOC-4-piperidine-methanol]-5,10-dioxo-3,4,5,10-tetrahydronaphthaleno-[2,3-c]pyran-3-yl) ketone, racemic, hydrochloride], the VLB/OV3 (VLB/OV3) was 1.

`CC[C@@H]1CC2=C(C(=O)c3ccccc3C2=O)[C@@H](O[C@H]2C[C@H](NC(=O)C(F)(F)F)[C@H](O)[C@H](C)O2)O1` [BCH2026, (1'S, 1R, 3R)-5,10-dioxo-3-ethyl-1-(2',3',6'-trideoxy-3'-trifluoroacetamido-L-lyxohexopyranose)-3,4,5,10-tetrahydro-1H-naphtho-[2,3-c]pyran] gave a VLB/OV3 (VLB/OV3) of over 7, an IC50 ([1]; Homo sapiens) of 31400 nM and an IC50 (Lox (Melanoma); Homo sapiens) of 2120 nM. It also gave an IC50 ([2]; Homo sapiens) of over 100000 nM, an IC50 [3, 5] of 22000 nM and an IC50 ([4]; Homo sapiens, SK-OV-3) of 15000 nM.

In the case of `CO[C@@H]1O[C@@H](C(=O)Nc2ccccc2)CC2=C1C(=O)c1ccccc1C2=O` (relative stereo) [BCH2041, (1,3-trans)-anline-(1-methoxy-5,10-dioxo-3,4,5,10-tetrahydro-1H-naphtho-[2,3-c]-pyran)-3-carboxamide], the VLB/OV3 (VLB/OV3) is reported as 5, the IC50 ([1]; Homo sapiens) is reported as 5620 nM and the IC50 (Lox (Melanoma); Homo sapiens) is reported as 1900 nM. For the same compound, the IC50 ([2]; Homo sapiens) was 10000 nM, the IC50 [3, 5] was 1900 nM and the IC50 ([4]; Homo sapiens, SK-OV-3) was 2140 nM.

`CC(=O)[C@@H]1CC2=C(C(=O)c3ccccc3C2=O)[C@@H](O[C@H]2C[C@H](NC(=O)C(F)(F)F)[C@H](O)[C@H](C)O2)O1` [BCH1184, (1'S,1R,3S)-Methyl (5,10-dioxo-1-(2',3',6'-trideoxy-3'-trifluoroacetamido-4'-hydroxy-L-lyxohexopyranose)-3,4,5,10-tetrahydronaphtho [2,3-C]pyran-3-yl) ketone] was tested, and the VLB/OV3 (VLB/OV3) was 4.75-22.34, the IC50 ([1]; Homo sapiens) was 284 to 530 nM and the IC50 (Lox (Melanoma); Homo sapiens) was 18.6 to 228 nM. It also gave an IC50 ([2]; Homo sapiens) of 53.6 to 300 nM, an IC50 [3, 5] of 2.3 to 16.1 nM and an IC50 ([4]; Homo sapiens, SK-OV-3) of 5 to 63.1 nM.

`CC(=O)C1CC2=C(C(=O)c3ccccc3C2=O)C(OC[C@@H]2CCCN2C(=O)OC(C)(C)C)O1` (mixture of isomers) [BCH2067, (1S, 2'S, 3R) and (1R, 2'S, 3S)-methyl-(1-[O-N-BOC-prolinol]-5,10-dioxo-3,4,5,10-tetrahydro-1-H-naphtho[2,3-C]pyran-3-yl) ketone] was tested, and the VLB/OV3 (VLB/OV3) was 2, the IC50 ([1]; Homo sapiens) was 540 nM and the IC50 (Lox (Melanoma); Homo sapiens) was 1100 nM. For the same compound, the IC50 [3, 5] was 323 nM and the IC50 ([4]; Homo sapiens, SK-OV-3) was 1200 nM.

For `CO[C@H]1C[C@H](O[C@@H]2O[C@@H](C(C)=O)CC3=C2C(=O)c2ccccc2C3=O)O[C@@H](C)[C@H]1OS(C)(=O)=O` [BCH2072, (1'-S, 1'S, 3-R)-methyl-(1-[2',3',4',6' tetradeoxy-3'-methoxy-4'-O-methanesulfonyl-L-lyxohexopyranose)-5,10-dioxo-3,4,5,10 tetrahydronaphtho-[2,3-c]pyran-3-yl) ketone], the VLB/OV3 (VLB/OV3) was 2.79-15.46, the IC50 ([1]; Homo sapiens) was 23.6 to 350 nM and the IC50 (Lox (Melanoma); Homo sapiens) was 102 nM. For the same compound, the IC50 ([2]; Homo sapiens) was 315 to 991 nM, the IC50 [3, 5] was 53.9 to 101 nM and the IC50 ([4]; Homo sapiens, SK-OV-3) was 64.1 to 113 nM.

`CO[C@@H]1O[C@@H](C(=O)O)CC2=C1C(=O)c1ccccc1C2=O` (relative stereo) [BCH2045, (1,3-trans)-1-methoxy-3-carboxyl-5,10-dioxo-3,4,5,10-tetrahydro-1H-naphtho-[2,3-c]-pyran] showed a VLB/OV3 (VLB/OV3) of 3, an IC50 ([1]; Homo sapiens) of 13000 nM and an IC50 (Lox (Melanoma); Homo sapiens) of 4600 nM. The IC50 ([2]; Homo sapiens) was 15000 nM, the IC50 [3, 5] was 1110 nM and the IC50 ([4]; Homo sapiens, SK-OV-3) was 5300 nM.
